Experimental data reported in US10653642B2, “Compositions and methods for the treatment of tauopathies” (UNIVERSITY OF SOUTH FLORIDA, priority 2017, dated 2020).

Legend:
Type in all cases: cell-based
[1] = system: endogenous tau; test: Western blot of tau levels in M17 neuroblastoma cells
Procedure: (§1) It was examined whether hexachlorophene can regulate levels of tau in cellular models. Three different cells lines were treated with hexachlorophene at various different doses. M17 neuroblastoma cells were treated with 1 μM, 2 μM, 3 μM, 5 μM, and 10 μM hexachlorophene. HeLa C3 cells were treated with 0.5 μM, 1 μM, 2 μM, 3 μM, and 5 μM hexachlorophene. iHEK280 cells (an inducible tau model) were treated with 0.5 μM, 1 μM, 1.5 μM, 2 μM, and 2.5 μM hexachlorophene. Cell lysates were analyzed by Western blotting for total tau, phosphorylated tau, and actin (as a control). We also analyzed the effect of hexachlorophene on various pathological forms of tau such as the phosphoserine 396 tau form that localizes to the soluble fraction. Hexachlorophene was purchased from Sigma-Aldrich (St. Louis, Mo.). BE(2) M17 neuroblastoma cells were purchased from ATCC (Manassas, Va.). HeLa C3 cells were generated according to Jinwal et al. (J. Neurosci. 2009, 29, 12079-12088). iHEK cells were generated according to Abisambra et al. (J. Neurosci. 2013, 33, 9498-9507). Neuro-2a (N2a) mouse neuroblastoma cells overexpressing human tau-GFP were generated in house.

[2] = system: human tau-GFP; test: Western blot of tau in Neuro-2a (N2a) mouse neuroblastoma cells overexpressing human tau-GFP; settings: nanomolar concentrations, 24 hours
Procedure: as §1
Neuro-2a (N2a) mouse neuroblastoma cells overexpressing human tau-GFP were examined for the effect of hexachlorophene on tau protein using Western blot analysis. […]

[3] = system: human tau-GFP; test: Immunofluorescence and confocal microscopy of Neuro-2a cells overexpressing human tau-GFP; settings: N2a cells, immunofluorescence, 0.1-3 μM, 24 hours
Description: Neuro-2a (N2a) mouse neuroblastoma cells overexpressing human tau-GFP were examined for the effect of hexachlorophene on tau protein using Western blot analysis. […] Immunofluorescence and confocal microscopy were also used to analyze the effect of hexachlorophene on the cells.

[4] = molecular target: T1, over-expressed tau (Homo sapiens, UniProt P10636); test: Western blot of tau levels in HeLa C3 cells with over-expressed tau; settings: for phosphorylated tau levels / total tau levels: 0.5-5 μM
T1 construct: expressed in transfected cells; host or cells: HeLa C3 cells
Procedure: as §1

[5] = system: inducible tau; test: Western blot of tau levels in iHEK280 cells (inducible tau model); settings: for levels of phosphorylated tau / levels of total tau: 0.5-2.5 μM
Procedure: as §1

[6] = system: tau aggregates; test: Thioflavin-S staining of tau aggregates in HEK280 cells
Procedure: We examined the effect of hexachlorophene on tau aggregation using thioflavin-S staining. Thioflavin S is a mixture of compounds that results from the methylation of dehydrothiotoluidine with sulfonic acid, and it is used to stain tau aggregates. Upon binding tau aggregates, thioflavin S gives a distinct increase in fluorescence emission. Thioflavin-S staining was performed by incubating HEK280 cells with 0.1% thioflavin-S for 5 min, with or without 1 μM hexachlorophene. Cells were also labelled with a primary rabbit polyclonal Tau Antibody diluted with 5% goat serum and a secondary anti-rabbit antibody labeled with red. Cells containing distinct thioflavin-S signals indicating the presence of aggregated protein were scored in many independent fields containing a total of 500 cells.

[7] = 24 hours, listed as Hexachlorophene

T1 sequence (P10636 1-383 isoform P10636-6): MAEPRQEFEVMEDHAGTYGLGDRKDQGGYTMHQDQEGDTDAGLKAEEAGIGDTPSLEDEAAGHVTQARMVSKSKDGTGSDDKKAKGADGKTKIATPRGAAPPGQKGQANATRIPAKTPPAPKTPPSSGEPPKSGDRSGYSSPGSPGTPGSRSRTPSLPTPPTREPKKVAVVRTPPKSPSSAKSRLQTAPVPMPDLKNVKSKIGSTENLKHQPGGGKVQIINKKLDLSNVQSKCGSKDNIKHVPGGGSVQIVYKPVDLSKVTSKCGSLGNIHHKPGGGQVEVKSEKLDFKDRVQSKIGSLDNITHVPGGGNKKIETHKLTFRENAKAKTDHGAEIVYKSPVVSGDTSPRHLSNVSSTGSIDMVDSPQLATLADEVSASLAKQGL

Structure (SMILES): Oc1c(Cl)cc(Cl)c(Cl)c1Cc1c(O)c(Cl)cc(Cl)c1Cl [hexachlorophene]
- levels of phosphorylated serine 396 tau in the soluble fraction [1]: decreased
- phosphorylated (Pser396) tau proteins ([1]; 10 μM, 24 hours): completely cleared
- levels of endogenous (total) tau ([1]; 1-10 μM, 24 hours): decreased
- phosphorylated form of endogenous tau ([1]; 1-10 μM, 24 hours): significantly reduced
- levels of endogenous (total) tau ([1]; 1-10 μM, 24 hours, listed as Hexachlorophene): significantly reduced
- phosphorylated tau (Pser396 & Pser199) [2]: reduced
- total tau protein [2]: reduced
- phosphorylated tau (Pser396 and Pser199) [3]: reduced
- total tau protein [3]: reduced
- levels of phosphorylated serine 396 tau in the soluble fraction [4]: decreased
- phosphorylated tau (Pser396) ([4]; 2 μM, 24 hours): completely cleared
- total tau ([4]; 2 μM, 24 hours): partially cleared
- phosphorylated tau levels ([4]; 24 hours): decreased
- total tau levels ([4]; 24 hours): decreased
- phosphorylated tau levels [4, 7]: significantly reduced
- total tau levels [4, 7]: significantly reduced
- levels of phosphorylated serine 396 tau in the soluble fraction [5]: decreased
- phosphorylated tau (Pser396) ([5]; 1.5 μM, 24 hours): completely cleared
- total tau ([5]; 1.5 μM, 24 hours): partially cleared
- phosphorylated tau (Pser396) levels ([5]; 2 μM, 24 hours): cleared
- total tau protein ([5]; 2 μM, 24 hours): cleared
- levels of phosphorylated tau ([5]; 24 hours): decreased
- levels of total tau ([5]; 24 hours): decreased
- levels of phosphorylated tau [5, 7]: significantly reduced
- levels of total tau [5, 7]: significantly reduced
- tau aggregation (thioflavin-S staining) ([6]; 1 μM): significant reduction
- tau aggregates (thioflavin-S signal) ([6]; 24 hours): reduced
